These results are taken from publication PMC8931250, “A SURF4-to-proteoglycan relay mechanism that mediates the sorting and secretion of a tagged variant of sonic hedgehog” (Proceedings of the National Academy of Sciences of the …, 2022).

The subject of data set [1] is packaging of ShhN-HA into transport vesicles. As to the kind of experiment: In vitro vesicle formation assay, packaging of ShhN-HA. It counts as cell-based. The method, then: (§1) To analyze whether the CW motif is important for the packaging of ShhN into COPII vesicles, we reconstituted vesicular release of ShhN in HEK293T cells (Fig. 1T). HEK293T cells transfected with 3xHA-tagged ShhN (ShhN-HA) were permeabilized by digitonin. After permeabilization, the semi-intact cells were washed with buffer to remove endogenous cytosolic proteins. Semi-intact cells were then incubated at 30 °C with rat liver cytosol (RLC), GTP, and an ATP regeneration system (ATPrS) in the presence or absence of a GTP hydrolysis defective mutant form of Sar1A, Sar1A (H79G). The vesicles released were then isolated by centrifugation and analyzed by immunoblotting (Fig. 1T). […] Deleting residues 33 to 49 (Fig. 1V) or deleting the CW motif (residues 33 to 39) in ShhN caused a significant reduction in the efficiency of packaging of ShhN into vesicles (Fig. 1W and quantification in Fig. 1X), while the abundance of ERGIC53 in transport vesicles was unchanged (Fig. 1Y). […]
(§2) reaction mixture for 1 h at 4 °C. The beads were washed four times with 500 µ l of HK buffer and analyzed […]
(§3) Label-free quantitative mass spectrometry
(§4) Mass spectrometry was performed to identify the proteins involved in Shh secretion. […] Finally, the resulted peptides were analyzed by Mass Spectrometer. The tandem mass spectra were then subject to protein identification and label-free quantification by Proteome Discoverer. […]

Data set [2] has as its system packaging of ERGIC53 into transport vesicles. The data set can be described thus: In vitro vesicle formation assay, packaging of ERGIC53. In kind it is cell-based. Conditions: semi-intact HEK293T cells, rat liver cytosol, GTP, ATPrS, 0.5 µg Sar1A (H79G). The method, then: as §1, §2, §3, §4
The test system of data set [3] is COPII-dependent ER export. Conditions: cited from earlier work. Here is the method:
To analyze whether the CW motif is important for the packaging of ShhN into COPII vesicles, we reconstituted vesicular release of ShhN in HEK293T cells (Fig. 1T). HEK293T cells transfected with 3xHA-tagged ShhN (ShhN-HA) were permeabilized by digitonin. After permeabilization, the semi-intact cells were washed with buffer to remove endogenous cytosolic proteins. Semi-intact cells were then incubated at 30 °C with rat liver cytosol (RLC), GTP, and an ATP regeneration system (ATPrS) in the presence or absence of a GTP hydrolysis defective mutant form of Sar1A, Sar1A (H79G). The vesicles released ...

The next data set has as its system ShhN-SURF4 interaction. The data set can be described thus: Heparin competition in GST pull down of SURF4-HA by ShhN^25-49-GST. It counts as binding, human. Conditions: n = 3. The method, then:
(§5) Immunoprecipitation was performed as described ([27]). Purification of GST-tagged ShhN^25-49 and GST-tagged SURF4^49-60 was performed as described previously ([54]). GST pull down assays were performed as described previously ([54]). Peptide binding assay was performed as described previously ([27]). […]
Immunoprecipitation, protein purification, and binding assay […]
After incubation, the beads were washed 4 times with 1 ml of HK buffer (100 mM KCl, 20 mM Hepes, pH 7.2), and the bound material was analyzed by Coomassie blue staining and immunoblotting.
Binding assays between Myc- tagged SURF4 or Myc-tagged SURF4ED-AA and HA-tagged ShhN or ShhN∆33- 39 were performed by treating HEK293T cells co -transfected with plasmids encoding the indicated proteins in 1 × PBS containing 2 mM dithiobis[succinimidylpropionate] (DSP) and 2 mM CaCl2 at room temperature for 30 min, and then quenched with 25 mM Tris-HCl, pH 7.5. 200 µl of 0.5 mg/ml cell lysates were incubated with 10 μl of compact anti-HA agarose affinity beads with mixing at 4 °C overnight. After incubation, the beads were washed 4 times with 1 ml of HK buffer (100 mM KCl, 20 mM Hepes, pH 7.2), and the bound material was analyzed by immunoblotting. […]
(§6) After incubation, the beads were washed three times with 500 µ l of HKT buffer and twice with 500 µ l of HK buffer, and the bound material was analyzed by immunoblotting. […]

Another data set deals with SURF4-Myc. The data set can be described thus: Crosslinking co-IP of SURF4-Myc with HA-tagged cargo. It counts as binding, human. Conditions: HEK293T, 2 mM DSP. The method, then: as §5
Immunoprecipitation, protein purification, and binding assay
Immunoprecipitation of HA-tagged ShhN was performed by incubating 200 µl of 0.5 mg/ml cell lysates from HEK293T cells transfected with ShhN- HA in HKT buffer with 10 μl of compact anti-HA agarose affinity beads with mixing at 4 °C overnight. After incubation, the beads were washed 4 times with 1 ml of HK buffer (100 mM KCl, 20 mM Hepes, pH 7.2), and the bound material was analyzed by Coomassie blue staining and immunoblotting.
(§7) Binding assays between Myc- tagged SURF4 or Myc-tagged SURF4ED-AA and HA-tagged ShhN or ShhN∆33- 39 were performed by treating HEK293T cells co -transfected with plasmids encoding the indicated proteins in 1 × PBS containing 2 mM dithiobis[succinimidylpropionate] […] After incubation, the beads were washed 4 times with 1 ml of HK buffer (100 mM KCl, 20 mM Hepes, pH 7.2), and the bound material was analyzed by immunoblotting. […]
as §6

For a further data set, the target named is T1, GST-SURF4^49-60 (Homo sapiens, UniProt O15260).
T1 construct: SURF4 (49-60) in the same buffer was in the calorimetric cell; made in house; host or cells: Escherichia coli
As to the kind of experiment: Peptide bead pull down with purified GST-SURF4^49-60 as prey. In kind it is binding. Conditions: normalized to CW peptides; n = 3, mean ± SD (values only in Fig. 3O); anti-GST immunoblot; HK buffer pH 7.2, 4 °C. Here is the method: as §5
in cold KOAc buffer (110 mM KOAc, 2 mM Mg(OAc)2, 20 mM Hepes, pH 7.2). Then cells were permeabilized by 0.03 mg/ml digitonin in KOAc buffer for 6 min at room temperature. The permeabilized cells were washed with cold KOAc buffer. […]
as §7, §6, §2
Label-free quantitative mass spectrometry […]
A general note: A western blot detects proteins with antibodies after separation by electrophoresis.

The target of the next data set is T2, CW peptides (KRRHPKKC) ( (human or mouse cDNA cloned)).
T2 construct: Cardin-Weintraub (CW) motif of Shh, residues 33 to 39 in ShhN; C-terminal cysteine printed after the KRRHPKK motif; In the pull-downs the peptide was covalently linked to thiopyridone Sepharose 6B; also called peptides corresponding to the CW motif; source: synthetic peptide
T2 peptide: KRRHPKKC
As to the kind of experiment: ITC; isothermal titration calorimetry of CW peptides with GST-SURF4^49-60 or GST. Conditions: both partners purified.

With “Sar1A (H79G): GTP hydrolysis defective mutant form of Sar1A”, the “efficiency of packaging of ShhN-HA into transport vesicles” value in data set [1] (HEK293Trex cells, SAR1A (H79G)) is recorded as “reduced the efficiency of packaging”. Further, the “efficiency of packaging of ShhN-HA into transport vesicles” value in data set [1] (semi-intact HEK293T cells, rat liver cytosol, GTP, ATPrS, 0.5 µg Sar1A (H79G)) was “greatly reduced”. Besides, the “efficiency of packaging of ERGIC53 into transport vesicles” value in data set [2] is listed as “greatly reduced”. For the same molecule, in data set [3], the “COPII-dependent ER export” value is “inhibits COPII-dependent ER export”; the “membrane association of SEC23A/B” value was “enhances membrane association of SEC23A/B”; the “vesicular capture of SEC22B and ERGIC53” value is given as “abolishes the vesicular capture”; the “vesicular release of TGN46” value is “does not affect the vesicular release”.
In the case of heparin, the “inhibition of the interaction between ShhN and SURF4” value with ShhN-SURF4 interaction (GST pull down with ShhN^25-49-GST and SURF4-HA lysate) is “inhibited the interaction between ShhN and SURF4 in a concentration-dependent manner”. Also, the “inhibition of the ShhN-SURF4 interaction at pH 6.0” value with ShhN-SURF4 interaction (pH 6.0) is recorded as “still inhibits the ShhN-SURF4 interaction”.
As to “ShhN-HA: 3xHA-tagged N-terminal fragment of Shh without the cholesterol modification”, the “percentage of SURF4-Myc bound to ShhN-HA vs CW motif-depleted ShhN” value with SURF4-Myc (n = 3) is “significantly higher than the percentage of SURF4-Myc that bound to ShhN^Δ33-39-HA”. Also, the “interaction with SURF4 vs IGF2” value in the data set on SURF4-Myc (SURF4-Myc, HA beads) is listed as “more robustly than IGF2”.
In the case of “VRRFRYPERPC [peptides corresponding to the first intracellular loop of Frizzled6 (…)]”, the “level of GST-SURF4^49-60 bound relative to CW peptides” value at GST-SURF4^49-60 is listed as “significantly lower than that bound to the CW peptides”.
Still for that read-out and setting: under “AAAHPAAC [CW(KR-AA), alanine substituted mutant (AAAHPAAC)]” stands “bound more efficiently to the wild-type CW sequence than an alanine substituted mutant”.

B1: GST-SURF4^49-60 (domain or fragment, human, UniProt O15260 49-60, looked up)
chain: SEQRDYIDTTWN
notes: first luminal loop of SURF4, amino acids 49 to 60; also called GST-tagged SURF4^49-60; source: E. coli, purified
One may read the Kd as the free concentration of one partner at which half of the binding sites on the other are occupied at equilibrium, for simple one-to-one binding. For the molecule B1, binding with CW peptides (KRRHPKKC) was put at a Kd of 2350 ± 90 nM.
